Test results: ChEMBL document CHEMBL4425183, “Gold catalyzed double condensation reaction: Synthesis, antimicrobial and cytotoxicity of spirooxindole derivatives” (Bioorg Med Chem Lett, 2016)
Converted amounts (≈) assume the structure as drawn.

Legend:
COLO 320 = experiment: cells; conditions: Homo sapiens, COLO 320, read-out: GI
Description: Cytotoxicity against human COLO320 cells assessed as cell growth inhibition at 156 uM by MTT assay relative to control

Candida albicans [1] = experiment: Antifungal activity against Candida albicans MTCC 227 after 48 to 72 hrs at 28 degC by two fold serial dilution method; format: functional
Candida albicans [2] = experiment: Antifungal activity against Candida albicans MTCC 227 at 1 mg/disc after 48 hrs at 28 degC by disc diffusion method; format: functional
Malassezia pachydermatis = experiment: Antifungal activity against Malassezia pachydermatis at 1 mg/disc after 48 hrs at 28 degC by disc diffusion method; format: functional
Klebsiella pneumoniae [3] = experiment: Antibacterial activity against Klebsiella pneumoniae MTCC 109 at 1 mg/disc after 24 hrs at 37 degC by disc diffusion method; format: functional
Klebsiella aerogenes [4] = experiment: Antibacterial activity against Enterobacter aerogenes MTCC 111 after 24 hrs at 37 degC by two fold serial dilution method; format: functional; conditions: MTCC 111, 24 h
Staphylococcus aureus [5] = experiment: Antibacterial activity against Staphylococcus aureus MTCC 96 after 24 hrs at 37 degC by two fold serial dilution method; format: functional; conditions: MTCC 96, 24 h
Staphylococcus aureus [6] = experiment: Antibacterial activity against methicillin-resistant Staphylococcus aureus at 1 mg/disc after 24 hrs at 37 degC by disc diffusion method; format: functional
Salmonella typhimurium [7] = experiment: Antibacterial activity against Salmonella typhimurium MTCC 1251 after 24 hrs at 37 degC by two fold serial dilution method; format: functional, Salmonella enterica subsp. enterica serovar Typhimurium; conditions: Salmonella enterica, MTCC 1251, 24 h
Staphylococcus aureus [8] = experiment: Antibacterial activity against Staphylococcus aureus MTCC 96 at 1 mg/disc after 24 hrs at 37 degC by disc diffusion method; format: functional
[9] = tested on: Staphylococcus epidermidis; experiment: Antibacterial activity against Staphylococcus epidermidis MTCC 3615 after 24 hrs at 37 degC by two fold serial dilution method; format: functional; conditions: MTCC 3615, 24 h
Klebsiella aerogenes [10] = experiment: Antibacterial activity against Enterobacter aerogenes MTCC 111 at 1 mg/disc after 24 hrs at 37 degC by disc diffusion method; format: functional
Shigella flexneri [11] = experiment: Antibacterial activity against Shigella flexneri MTCC 1457 at 1 mg/disc after 24 hrs at 37 degC by disc diffusion method; format: functional
Micrococcus luteus [12] = experiment: Antibacterial activity against Micrococcus luteus MTCC 106 after 24 hrs at 37 degC by two fold serial dilution method; format: functional; conditions: MTCC 106, 24 h
Staphylococcus aureus [13] = experiment: Antibacterial activity against methicillin-resistant Staphylococcus aureus after 24 hrs at 37 degC by two fold serial dilution method; format: functional
Micrococcus luteus [14] = experiment: Antibacterial activity against Micrococcus luteus MTCC 106 at 1 mg/disc after 24 hrs at 37 degC by disc diffusion method; format: functional
Klebsiella pneumoniae [15] = experiment: Antibacterial activity against Klebsiella pneumoniae MTCC 109 after 24 hrs at 37 degC by two fold serial dilution method; format: functional; conditions: MTCC 109, 24 h
Bacillus subtilis [16] = experiment: Antibacterial activity against Bacillus subtilis MTCC 441 after 24 hrs at 37 degC by two fold serial dilution method; format: functional; conditions: MTCC 441, 24 h
Shigella flexneri [17] = experiment: Antibacterial activity against Shigella flexneri MTCC 1457 after 24 hrs at 37 degC by two fold serial dilution method; format: functional; conditions: MTCC 1457, 24 h
Bacillus subtilis [18] = experiment: Antibacterial activity against Bacillus subtilis MTCC 441 at 1 mg/disc after 24 hrs at 37 degC by disc diffusion method; format: functional
[19] = tested on: Staphylococcus epidermidis; experiment: Antibacterial activity against Staphylococcus epidermidis MTCC 3615 at 1 mg/disc after 24 hrs at 37 degC by disc diffusion method; format: functional
Salmonella typhimurium [20] = experiment: Antibacterial activity against Salmonella typhimurium MTCC 1251 at 1 mg/disc after 24 hrs at 37 degC by disc diffusion method; format: functional, Salmonella enterica subsp. enterica serovar Typhimurium

O=P1(N(CCCl)CCCl)NCCCO1 (configuration not stated) [CYCLOPHOSPHAMIDE ANHYDROUS]
inhibition of growth at 156 µM (COLO 320): 90%

CC(=O)N1CCN(c2ccc(OCC3COC(Cn4ccnc4)(c4ccc(Cl)cc4Cl)O3)cc2)CC1 (configuration not stated) [KETOCONAZOLE]
MIC (Candida albicans [1]): 25 µM (≈ 13.3 µg/mL) | inhibition zone (IZ) (Candida albicans [2]): 28 mm | inhibition zone (IZ) (Malassezia pachydermatis): 26 mm

CN[C@@H]1[C@H](O[C@H]2[C@H](O[C@H]3[C@H](O)[C@@H](O)[C@H](N=C(N)N)[C@@H](O)[C@@H]3N=C(N)N)O[C@@H](C)[C@]2(O)C=O)O[C@@H](CO)[C@H](O)[C@H]1O [STREPTOMYCIN]
inhibition zone (IZ) (Klebsiella pneumoniae [3]): 20 mm | MIC (Klebsiella aerogenes [4]): 25 µM (≈ 14.5 µg/mL) | MIC (Staphylococcus aureus [5]): 6.25 µM (≈ 3.63 µg/mL) | inhibition zone (IZ) (Staphylococcus aureus [6]): 30 mm | MIC (Salmonella typhimurium [7]): 30 µM (≈ 17.4 µg/mL) | inhibition zone (IZ) (Staphylococcus aureus [8]): 14 mm | MIC [9]: 25 µM (≈ 14.5 µg/mL) | inhibition zone (IZ) (Klebsiella aerogenes [10]): 22 mm | inhibition zone (IZ) (Shigella flexneri [11]): 30 mm | MIC (Micrococcus luteus [12]): 6.25 µM (≈ 3.63 µg/mL) | MIC (Staphylococcus aureus [13]): 6.25 µM (≈ 3.63 µg/mL) | inhibition zone (IZ) (Micrococcus luteus [14]): 26 mm | MIC (Klebsiella pneumoniae [15]): 6.25 µM (≈ 3.63 µg/mL) | MIC (Bacillus subtilis [16]): 25 µM (≈ 14.5 µg/mL) | MIC (Shigella flexneri [17]): 6.25 µM (≈ 3.63 µg/mL) | inhibition zone (IZ) (Bacillus subtilis [18]): 25 mm | inhibition zone (IZ) [19]: 25 mm | inhibition zone (IZ) (Salmonella typhimurium [20]): 18 mm
